The values that follow come from BindingDB's records for patent US9745282 (Merck Sharp & Dohme Corp, 2017).

In this assay the target is T1, Cytochrome P450 11B1, mitochondrial (Homo sapiens, UniProt P15538).
T1 sequence (P15538 whole entry): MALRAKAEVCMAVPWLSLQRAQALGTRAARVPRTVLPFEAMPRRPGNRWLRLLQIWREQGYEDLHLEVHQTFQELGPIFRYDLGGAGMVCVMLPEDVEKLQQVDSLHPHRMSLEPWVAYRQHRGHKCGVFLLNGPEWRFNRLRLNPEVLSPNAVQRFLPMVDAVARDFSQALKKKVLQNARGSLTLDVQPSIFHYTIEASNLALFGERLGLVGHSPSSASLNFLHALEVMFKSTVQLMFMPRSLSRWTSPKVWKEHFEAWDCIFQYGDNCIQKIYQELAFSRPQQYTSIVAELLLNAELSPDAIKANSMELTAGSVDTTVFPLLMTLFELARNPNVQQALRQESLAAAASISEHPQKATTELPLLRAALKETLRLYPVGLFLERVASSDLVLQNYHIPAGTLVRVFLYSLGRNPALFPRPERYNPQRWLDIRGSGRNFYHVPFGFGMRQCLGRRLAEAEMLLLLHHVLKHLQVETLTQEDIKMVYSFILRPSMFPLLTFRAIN
Consider `CC(=O)N1CCc2cc(-c3cncc(F)c3C)cc(Cl)c21` [US9745282, 8], for which the IC50 stood at 0.27 µM.

The compound `CC(=O)N1CCc2cc(-c3cnccc3C)cc(F)c21` [US9745282, 15] showed an IC50 of 0.068 µM.

The compound `CC(C)C(=O)N1CCc2cc(-c3cncc4ccccc34)ccc21` [US9745282, 30] came in with an IC50 of 3.72 µM.

`O=C(N1CCc2cc(-c3cncc(F)c3)cc(Cl)c21)C(F)(F)F` [US9745282, 32] gave an IC50 of 0.525 µM. This IC50 is about 7.1-fold lower than that of the compound before.

In turn, `O=C(N1CCc2cc(-c3cncc(F)c3)cc(F)c21)C(F)(F)F` [US9745282, 33] displayed an IC50 of 1.41 µM.
